According to US7754864B2, “Tyrosinase activity controlling agent, process for producing the same and external preparation containing the same” (National Institute of Advanced Industrial Science and …, priority 2002, dated 2010):

Columns and labels:
[1] = tested on: tyrosinase (derived from mushroom, SIGMA); assay: Tyrosinase inhibitory activity using proline, pyrocatechol as substrate; assay type: biochemical; conditions: pyrocatechol (catechol) as substrate, absorbance 525 nm
[2] = tested on: tyrosinase (derived from mushroom, SIGMA); assay: Tyrosinase inhibitory activity using proline, phenol as substrate; assay type: biochemical; conditions: for tyrosinase inhibitory activity: phenol as substrate, absorbance 525 nm
Method: The tyrosinase inhibitory activity of an undecylenic acid sugar ester was determined using phenol as a substrate, by a modification of the method using pyrocatechol.

[3] = tested on: tyrosinase (derived from mushroom, SIGMA); assay: Tyrosinase activation promoting effect, phenol as substrate in the presence of proline; assay type: biochemical; conditions: FIG. 10
Method: Ascorbic acid and ascorbic acid derivatives were used as test substances for measuring tyrosinase activation promoting effects, using phenol as a substrate in the presence of proline.
Phenol is hydroxylated by tyrosinase, and at that time requires a hydrogen donor. The produced pyrocatechol is oxidized by tyrosinase to form an orthoquinone. The orthoquinone formed is quantitated in the presence of proline, to determine the tyrosinase activity.
Specifically, the measurement was carried out as follows. Forty microliters of 0.749 M L-proline dissolved in 0.1 M phosphate buffer at pH 7.5, 40 μl of 0.037 M phenol, and 1.41 ml of one of test substance solutions at various concentrations were stirred in a cuvette for absorbance measurement. A solution (10 μl) of 350 μg/ml of tyrosinase (derived from mushroom, SIGMA) was added, and the absorbance change was measured with stirring for 15 minutes at 525 nm, to determine the tyrosinase activity. […]

Mouse melanoma B16 cells = assay: Evaluation of melanogenesis inhibitory effect using mouse melanoma cells; assay type: cell-based; conditions: melanin production per cell, FIG. 4
Method: Mouse melanoma B16 cells (3.6×10^5) were added to a 75 cm^2 culture flask containing 15 ml of D-MEM culture medium supplemented with 10% FCS, and incubated overnight at 37° C. under 5% carbon dioxide gas to adhere the cells. The culture medium was changed to 15 ml of 10% FCS-supplemented D-MEM culture medium containing one of 0.1% DMSO solutions of arbutin or 6-O-(10-undecylenoyl) arbutin obtained in Example 1-1 at various concentrations. The incubation was continued for two more days under the same conditions. The culture medium was again changed to 15 ml of the 0.1% DMSO solution-containing culture medium, and incubation was continued for two more days under the same conditions. After incubation, the cells were recovered, and the wet weight of the cells was measured. After the wet weight measurement, pellets of the cells were suspended in MilliQ water to a total volume of 700 μl. […] The absorbance (405 nm) was then measured. […] The melanin production per cell was indicated as absorbance at 405 nm/cell wet weight (μg). The melanogenesis inhibitory effects of arbutin undecylenate or arbutin at each concentration was determined, with the melanin production per cell without addition of arbutin or arbutin undecylenate being taken as 100%.

Compound | tyrosinase inhibitory activity [1] | tyrosinase inhibitory activity [2] | further results
OC[C@H]1O[C@@H](Oc2ccc(O)cc2)[C@H](O)[C@@H](O)[C@@H]1O [Arbutin] | inhibit tyrosinase activity | inhibit tyrosinase activity | tyrosinase inhibitory activity, phenol substrate compared with catechol substrate ([2]; phenol vs catechol substrate, FIG. 6): higher inhibitory activity against a phenol substrate than against a catechol substrate
CCCCCCCCCCCCCCCC(=O)OCC(O)C1OC(=O)C(O)=C1O (stereo not shown) [Ascorbic acid palmitic ester, ascorbic acid-6-palmitate] | – | – | concentrations exhibiting tyrosinase activity promoting effects [3]: ≤ 10^−4 M
C=CCCCCCCCCC(=O)O [Undecylenic acid] | inhibit tyrosinase activity | – | –
C=CCCCCCCCCC(=O)OC[C@H]1O[C@@H](Oc2ccc(O)cc2)[C@H](O)[C@@H](O)[C@@H]1O [arbutin undecylenate, 6-O-(10-undecylenoyl)arbutin] | – | – | melanogenesis inhibitory effect relative to arbutin (Mouse melanoma B16 cells): about 100 times
O=C1O[C@H]([C@@H](O)CO)C(O)=C1O [ascorbic acid, L-ascorbic acid] | – | – | concentrations exhibiting tyrosinase activity promoting effects [3]: ≤ 10^−4 M
Sucrose undecylenic acid ester | inhibit tyrosinase activity | inhibit tyrosinase activity | –
Trehalose diundecylenic acid ester | not inhibit tyrosinase activity | – | –
Trehalose oleate | – | not inhibit tyrosinase activity | –
trehalose undecylenic acid ester | inhibition of tyrosinase | tyrosinase was inhibited | –
